Assays:
clinical = conditions: human, in vivo
[1] = in vivo; cited from earlier work
[2] = Single-dose two-period crossover bioequivalence study, fasting: plasma pharmacokinetics of lisinopril and amlodipine (LC-MS/MS, NCA); conditions: for concentration at 0 h / concentration at 1 h / concentration at 2 h / concentration at 3 h / concentration at 4 h / concentration at 5 h / concentration at 6 h / concentration at 7 h / concentration at 8 h / concentration at 9 h / concentration at 10 h / concentration at 11 h / concentration at 12 h / concentration at 13 h / concentration at 24 h / concentration at 36 h / concentration at 48 h / concentration at 72 h / concentration at 96 h / concentration at 144 h / concentration at 168 h: human, plasma, po, Plasma concentration of amlodipine, reference (R) tablets; for concentration at 0 h: nominal time 0 h; for concentration at 1 h: nominal time 1 h; for concentration at 2 h: nominal time 2 h; for concentration at 3 h: nominal time 3 h; for concentration at 4 h: nominal time 4 h; for concentration at 5 h: nominal time 5 h; for concentration at 6 h: nominal time 6 h; for concentration at 7 h: nominal time 7 h; for concentration at 8 h: nominal time 8 h; for concentration at 9 h: nominal time 9 h; for concentration at 10 h: nominal time 10 h; for concentration at 11 h: nominal time 11 h; for concentration at 12 h: nominal time 12 h; for concentration at 13 h: nominal time 13 h; for concentration at 24 h: nominal time 24 h; for concentration at 36 h: nominal time 36 h; for concentration at 48 h: nominal time 48 h; for concentration at 72 h: nominal time 72 h; for concentration at 96 h: nominal time 96 h; for concentration at 144 h: nominal time 144 h; for concentration at 168 h: nominal time 168 h
[3] = amlodipine, intra-subject coefficient of variation

Tmax (clinical): ~6 h
Intra-CV (%) of AUC0-t [2, 3]: 9.9%
Intra-CV (%) of AUC0-∞ [2, 3]: 10.5%
Intra-CV (%) of Cmax [2, 3]: 9.7%
concentration at 0 h ([2]; Max, maximum over subjects): 0 ng/mL
concentration at 1 h ([2]; Max, maximum over subjects): 2.24 ng/mL
concentration at 2 h ([2]; Max, maximum over subjects): 2.57 ng/mL
concentration at 3 h ([2]; Max, maximum over subjects): 3.08 ng/mL
concentration at 4 h ([2]; Max, maximum over subjects): 2.45 ng/mL
concentration at 5 h ([2]; Max, maximum over subjects): 2.98 ng/mL
concentration at 6 h ([2]; Max, maximum over subjects): 4.18 ng/mL
concentration at 7 h ([2]; Max, maximum over subjects): 2.76 ng/mL
concentration at 8 h ([2]; Max, maximum over subjects): 3.48 ng/mL
concentration at 9 h ([2]; Max, maximum over subjects): 3.04 ng/mL
concentration at 10 h ([2]; Max, maximum over subjects): 2.86 ng/mL
concentration at 11 h ([2]; Max, maximum over subjects): 2.92 ng/mL
concentration at 12 h ([2]; Max, maximum over subjects): 2.98 ng/mL
concentration at 13 h ([2]; Max, maximum over subjects): 2.75 ng/mL
concentration at 24 h ([2]; Max, maximum over subjects): 2.45 ng/mL
concentration at 36 h ([2]; Max, maximum over subjects): 1.96 ng/mL
concentration at 48 h ([2]; Max, maximum over subjects): 1.69 ng/mL
concentration at 72 h ([2]; Max, maximum over subjects): 1.21 ng/mL
concentration at 96 h ([2]; Max, maximum over subjects): 1.11 ng/mL
concentration at 144 h ([2]; Max, maximum over subjects): 0.574 ng/mL
concentration at 168 h ([2]; Max, maximum over subjects): 0.455 ng/mL
concentration at 0 h ([2]; Mean, mean of subjects): 0 ng/mL
concentration at 1 h ([2]; Mean, mean of subjects): 0.686 ng/mL
concentration at 2 h ([2]; Mean, mean of subjects): 1.24 ng/mL
concentration at 3 h ([2]; Mean, mean of subjects): 1.51 ng/mL
concentration at 4 h ([2]; Mean, mean of subjects): 1.6 ng/mL
concentration at 5 h ([2]; Mean, mean of subjects): 2.03 ng/mL
concentration at 6 h ([2]; Mean, mean of subjects): 2.16 ng/mL
concentration at 7 h ([2]; Mean, mean of subjects): 2.04 ng/mL
concentration at 8 h ([2]; Mean, mean of subjects): 2.08 ng/mL
concentration at 9 h ([2]; Mean, mean of subjects): 1.96 ng/mL
concentration at 10 h ([2]; Mean, mean of subjects): 1.85 ng/mL
concentration at 11 h ([2]; Mean, mean of subjects): 1.77 ng/mL
concentration at 12 h ([2]; Mean, mean of subjects): 1.74 ng/mL
concentration at 13 h ([2]; Mean, mean of subjects): 1.65 ng/mL
concentration at 24 h ([2]; Mean, mean of subjects): 1.41 ng/mL
concentration at 36 h ([2]; Mean, mean of subjects): 1.13 ng/mL
concentration at 48 h ([2]; Mean, mean of subjects): 0.928 ng/mL
concentration at 72 h ([2]; Mean, mean of subjects): 0.64 ng/mL
concentration at 96 h ([2]; Mean, mean of subjects): 0.446 ng/mL
concentration at 144 h ([2]; Mean, mean of subjects): 0.2 ng/mL
concentration at 168 h ([2]; Mean, mean of subjects): 0.137 ng/mL
concentration at 0 h ([2]; Min, minimum over subjects): 0 ng/mL
concentration at 1 h ([2]; Min, minimum over subjects): 0.26 ng/mL
concentration at 2 h ([2]; Min, minimum over subjects): 0.452 ng/mL
concentration at 3 h ([2]; Min, minimum over subjects): 0.598 ng/mL
concentration at 4 h ([2]; Min, minimum over subjects): 0.834 ng/mL
concentration at 5 h ([2]; Min, minimum over subjects): 1.26 ng/mL
concentration at 6 h ([2]; Min, minimum over subjects): 1.14 ng/mL
concentration at 7 h ([2]; Min, minimum over subjects): 1.03 ng/mL
concentration at 8 h ([2]; Min, minimum over subjects): 0.988 ng/mL
concentration at 9 h ([2]; Min, minimum over subjects): 0.918 ng/mL
concentration at 10 h ([2]; Min, minimum over subjects): 0.806 ng/mL
concentration at 11 h ([2]; Min, minimum over subjects): 0.82 ng/mL
concentration at 12 h ([2]; Min, minimum over subjects): 0.829 ng/mL
concentration at 13 h ([2]; Min, minimum over subjects): 0.812 ng/mL
concentration at 24 h ([2]; Min, minimum over subjects): 0.603 ng/mL
concentration at 36 h ([2]; Min, minimum over subjects): 0.482 ng/mL
concentration at 48 h ([2]; Min, minimum over subjects): 0.391 ng/mL
concentration at 72 h ([2]; Min, minimum over subjects): 0.226 ng/mL
concentration at 96 h ([2]; Min, minimum over subjects): 0.123 ng/mL
concentration at 144 h ([2]; Min, minimum over subjects): 0 ng/mL
concentration at 168 h ([2]; Min, minimum over subjects): 0 ng/mL
SMILES: CCOC(=O)C1=C(COCCN)NC(C)=C(C(=O)OC)C1c1ccccc1Cl (centres unmarked) [amlodipine]
Absorption [1]: almost completely absorbed

From paper PMC9260974 (BMC Pharmacology & Toxicology, 2022)
